Reference: patent publication US11819569B2, “Treating inflammation with inhaled aspirin” (VECTURA INC., priority 2013, dated 2023)
Where two headings read alike, the source gives them in different places.

Experiments:
[1] = cited from earlier work
[2] = cited from earlier work; remark: listed apart in the source
[3] = cited from earlier work; remark: listed apart in the source
[4] = oral solution of 650 mg, four male subjects; cited from earlier work
[5] = Pharmacokinetic studies after oral administration of ASA (cited Dressman et al.); conditions: extrapolated from linear pharmacokinetics, dose not stated
[6] = after oral administration of ASA
[7] = metabolite after oral administration of ASA

Row | SMILES | elimination half-life [1, 6] [h] | time to peak plasma levels [1, 6] | pharmacokinetic behavior over dosage range ([1]; dosage range from 30-400 mg) | loss or inactivation of the oral dosage due to the first pass effect in the gut and liver ([2]; oral administration) | fraction of the oral dose that is bioavailable ([2]; taken orally, first pass effect) | vascular events prevented ([3]; Dutch TIA Study, any dose above 30 mg daily, oral) [%] | increase of major gastrointestinal and extracranial bleeds ([3]; oral aspirin, studies used dosages of 325 mg) | share of the dose that reached the peripheral circulation intact (AUC oral vs intravenous) [4] [%] | expected peak circulating plasma level [5] [µg/mL] | elimination half-life [1, 7] [h] | period over which plasma levels increase following administration of ASA [1, 7]
1 | CC(=O)Oc1ccccc1C(=O)O [aspirin, acetylsalicylic acid] | 0.25 to 0.333 | about 20 minutes | linear | approximately ⅔ | about one to two-thirds | 13 | over 50% | 68 | – | – | –
2 | O=C(O)c1ccccc1O [salicylate, salicylic acid] | – | – | – | – | – | – | – | – | ~10 | 2 to 3 | about 45 minutes
